Drawing on patent US5807850A, “Therapeutic agent for osteoporosis and triazepine compound” (Japan Tobacco, Inc., priority 1994, dated 1998), this text covers IC50 for 36 compounds.

The structures appear in SMILES notation. Counter-ions that a name gives are not always drawn. Like-named read-outs stand apart in the source and are kept apart here.

The subject of the assay is calvaria. The assay is described as follows: Inhibition of bone resorption (45Ca release from calvaria stimulated with hPTH (1-34), method of Raisz). In kind it is cell-based, new born ICR mouse. The note with it: 45Ca release, 50 nM hPTH (1-34), 3 days incubation, test concentrations 0.04, 0.2 and 1 μM, mean of 4 pairs, read-out: IC50 (inhibition of bone resorption).

Excerpt: The determination of the inhibitory action on the bone resorption was basically in accordance with the method of Raisz [J. Clin. Invest. vol.
A new born ICR mouse (one or two days old) was intraperitoneally administered with 1.5μ Ci ^45 Ca (isotope of calcium as CaCl2 solution) and calvaria was aseptically removed the next day. The calvaria was split into two along the central suture line, and one of them was used as a control and the other was used as a test compound. The calvaria was preincubated at 37° C. for 2 days in BGJb medium [0.5 ml, Fitton-Jackson modification, GIBCO Laboratories, USA, containing bovine serum albumin 1 mg/ml] added with a test compound to the concentrations of 0.04 μM, 0.2 μM and 1 μM and then in the above-mentioned medium containing 50 nM hPTH (1-34) for further 3 days. After the incubation, the ^45 Ca radioactivity in the medium and the bone was determined, and the proportion (%) of ^45 Ca released from the bone into the medium was calculated by the following formula.
Using the bone obtained from the same mouse and treated in the same manner without adding a test compound, as a control, the proportion (%) relative to the control group was determined according to the following formula.

For `Cc1nnc2n1-c1ccccc1C(c1ccc(Cl)cc1)=NN2Cc1ccc(N(C)C)cc1` [Example 191, 6-(4-Chlorophenyl)-4-(4-dimethylaminobenzyl)-1-methyl-4H-2,3,4,5,10b-pentaazabenz[e]azulene hydrochloride], the concentration for half-maximal inhibition (IC50) (commonly the concentration needed to halve the response being measured) (Mus musculus, 72 h) is 740 nM. The same measure, in the same setting: the value for `COc1ccc(CN2N=C(c3ccc(Cl)cc3)c3ccccc3-n3c(C)nnc32)cc1OC` [Example 41, 6-(4-Chlorophenyl)-4-(3,4-dimethoxybenzyl)-1-methyl-4H-2,3,4,5,10b-pentaazabenz[e]azulene] was 800 nM; that for `CCc1cc2c(s1)-n1c(C)nnc1N(Cc1cccnc1)N=C2c1ccc(Cl)cc1` [Example 141, 4-(4-Chlorophenyl)-2-ethyl-9-methyl-6-(pyridin-3-ylmethyl)-6H-5,6,7,8,9a-pentaazathien[2,3-e]azulene] was 680 nM. For the compound `Cc1nnc2n1-c1ccccc1C(c1ccc(Cl)cc1)=NN2Cc1ccc(S(C)(=O)=O)cc1` [Example 121, 6-(4-Chlorophenyl)-1-methyl-4-(4-methylsulfonylbenzyl)-4H-2,3,4,5,10b-pentaazabenz[e]azulene], the IC50 (Mus musculus, 72 h) was found to be 140 nM. On the same count and under the same terms, the value for `Cc1nnc2n1-c1ccccc1C(c1ccc(Cl)cc1)=NN2Cc1ccccc1F` [Example 57, 6-(4-Chlorophenyl)-4-(2-fluorobenzyl)-1-methyl-4H-2,3,4,5,10b-pentaazabenz[e]azulene] was 720 nM; that for `Cc1nnc2n1-c1ccccc1C(c1ccc(Cl)cc1)=NN2Cc1ccc(C#N)cc1` [Example 74, 6-(4-Chlorophenyl)-4-(4-cyanobenzyl)-1-methyl-4H-2,3,4,5,10b-pentaazabenz[e]azulene] was 430 nM; that for `Cc1nnc2n1-c1ccccc1C(c1ccc(Cl)cc1)=NN2Cc1ccc([N+](=O)[O-])cc1` [Example 122, 6-(4-Chlorophenyl)-1-methyl-4-(4-nitrobenzyl)-4H-2,3,4,5,10b-pentaazabenz[e]azulene] was 720 nM.

On to `Cc1sc2c(c1C)C(c1ccc(Cl)cc1)=NN(Cc1cccnc1)c1nnc(C)n1-2` [Example 139, 4-(4-Chlorophenyl)-2,3,9-trimethyl-6-(pyridin-3-ylmethyl)-6H-5,6,7,8,9a-pentaazathien[2,3-e]azulene], for which, for the setting “Mus musculus, 72 h”, the 50% inhibitory concentration (IC50) turned out to be 18 nM.

As for `Cc1nnc2n1-c1ccc([N+](=O)[O-])cc1C(c1ccccc1)=NN2Cc1ccncc1` [Example 134, 1-Methyl-8-nitro-6-phenyl-4-(pyridin-4-ylmethyl)-4H-2,3,4,5,10b-pentaazabenz[e]azulene], the IC50 (Mus musculus, 72 h) amounted to 180 nM. On to `COc1cc(CN2N=C(c3ccc(Cl)cc3)c3ccccc3-n3c(C)nnc32)cc(OC)c1OC` [Example 79, 6-(4-Chlorophenyl)-1-methyl-4-(3,4,5-trimethoxybenzyl)-4H-2,3,4,5,10b-pentaazabenz[e]azulene], for which the IC50 (Mus musculus, 72 h) is 570 nM. On the same count and under the same terms, in the case of `Cc1nnc2n1-c1ccccc1C(c1ccc(Cl)cc1)=NN2Cc1cccc(Cl)c1` [Example 70, 4-(3-Chlorobenzyl)-6-(4-chlorophenyl)-1-methyl-4H-2,3,4,5,10b-pentaazabenz[e]azulene] it was 640 nM. Still for that read-out and setting: the value for `Cc1nnc2n1-c1ccccc1C(c1ccc(Cl)cc1)=NN2Cc1ccc(O)cc1` [Example 184, 6-(4-Chlorophenyl)-4-(4-hydroxybenzyl)-1-methyl-4H-2,3,4,5,10b-pentaazabenz[e]azulene] was 560 nM. Same read-out and setting: the value for `Cc1nnc2n1-c1ccccc1C(c1ccc(Cl)cc1)=NN2Cc1cccc(F)c1` [Example 58, 6-(4-Chlorophenyl)-4-(3-fluorobenzyl)-1-methyl-4H-2,3,4,5,10b-pentaazabenz[e]azulene] was 430 nM; that for `Cc1nnc2n1-c1ccccc1C(c1ccc(Cl)cc1)=NN2Cc1ccc2c(c1)OCO2` [Example 81, 6-(4-Chlorophenyl)-1-methyl-4-(3,4-methylenedioxybenzyl)-4H-2,3,4,5,10b-pentaazabenz[e]azulene] was 590 nM. In the case of `COc1ccc(C2=NN(Cc3cccnc3)c3nnc(C)n3-c3sc(C)c(C)c32)cc1` [Example 149, 4-(4-Methoxyphenyl)-2,3,9-trimethyl-6-(pyridin-3-ylmethyl)-6H-5,6,7,8,9a-pentaazathien[2,3-e]azulene], where the note is “Mus musculus, 72 h”, the IC50 worked out at 180 nM. The same measure, in the same setting: in the case of `COc1ccc(CN2N=C(c3ccc(C)cc3)c3ccccc3-n3c(C)nnc32)cc1` [Example 46, 4-(4-Methoxybenzyl)-1-methyl-6-(4-methylphenyl)-4H-2,3,4,5,10b-pentaazabenz[e]azulene] it was 420 nM. The same measure, in the same setting: the value for `Cc1ccc(C2=NN(Cc3cccc(C#N)c3)c3nnc(C)n3-c3ccccc32)cc1` [Example 136, 4-(3-Cyanobenzyl)-1-methyl-6-(4-methylphenyl)-4H-2,3,4,5,10b-pentaazabenz [e]azulene] was 590 nM. For the compound `COc1ccc(CN2N=C(c3ccc(Cl)cc3)c3ccccc3-n3c(C)nnc32)cc1` [Example 77, 6-(4-Chlorophenyl)-4-(4-methoxybenzyl)-1-methyl-4H-2,3,4,5,10b-pentaazabenz[e]azulene], the half-maximal inhibitory concentration (IC50) worked out at 120 nM. For `CCc1cc2c(s1)-n1c(C)nnc1N(Cc1ccncc1)N=C2c1ccccc1` [Example 148, 2-Ethyl-9-methyl-4-phenyl-6-(pyridin-4-ylmethyl)-6H-5,6,7,8,9a-pentaazathien[2,3-e]azulene], the half-inhibitory concentration (IC50) (Mus musculus, 72 h) was found to be 680 nM. On to `Cc1ccc(C2=NN(Cc3ccncc3)c3nnc(C)n3-c3ccccc32)cc1` [Example 135, 1-Methyl-6-(4-methylphenyl)-4-(pyridin-4-ylmethyl)-4H-2,3,4,5,10b-pentaazabenz[e]azulene], for which the 50% inhibitory concentration (IC50) (Mus musculus, 72 h) stood at 410 nM. Turning to `C=C(Cl)CN1N=C(c2ccc(Cl)cc2)c2ccccc2-n2c(C)nnc21` [Example 112, 6-(4-Chlorophenyl)-4-(2-chloro-2-propenyl)-1l-methyl-4H-2,3,4,5,10b-pentaazabenz[e]azulene], the IC50 (Mus musculus, 72 h) is 380 nM.

As for `Cc1nnc2n1-c1ccccc1C(c1ccccc1)=NN2Cc1ccncc1` [Example 129, 1-Methyl-6-phenyl-4-(pyridin-4-ylmethyl)-4H-2,3,4,5,10b-pentaazabenz[e]azulene], the IC50 (Mus musculus, 72 h) amounted to 780 nM.

With `COc1ccc(CN2N=C(c3ccc(Cl)cc3)c3ccccc3-n3c(C)nnc32)cc1[N+](=O)[O-]` [Example 84, 6-(4-Chlorophenyl)-4-(4-methoxy-3-nitrobenzyl)-1-methyl-4H-2,3,4,5,10b-pentaazabenz[e]azulene], the IC50 (Mus musculus, 72 h) was found to be 670 nM. The same measure, in the same setting: in the case of `COc1ccc(CN2N=C(c3ccc(Cl)cc3)c3ccccc3-n3c(C)nnc32)cc1Cl` [Example 85, 4-(3-Chloro-4-methoxybenzyl)-6-(4-chlorophenyl)-1-methyl-4H-2,3,4,5,10b-pentaazabenz[e]azulene] it was 860 nM.

`Cc1nnc2n1-c1ccccc1C(c1ccc(Cl)cc1)=NN2Cc1cc(F)cc(F)c1` [Example 62, 6-(4-Chlorophenyl)-4-(3,5-difluorobenzyl)-1-methyl-4H-2,3,4,5,10b-pentaazbenz[e]azulene]: the IC50 (Mus musculus, 72 h) was found to be 710 nM. `CCc1cc2c(s1)-n1c(C)nnc1N(Cc1cccnc1)N=C2c1ccccc1` [Example 147, 2-Ethyl-9-methyl-4-phenyl-6-(pyridin-3-ylmethyl)-6H-5,6,7,8,9a-pentaazathien[2,3-e]azulene]: the IC50 (Mus musculus, 72 h) was 810 nM. For `COc1cccc(CN2N=C(c3ccc(Cl)cc3)c3ccccc3-n3c(C)nnc32)c1` [Example 76, 6-(4-Chlorophenyl)-4-(3-methoxybenzyl)-1-methyl-4H-2,3,4,5,10b-pentaazabenz[e]azulene], the half-inhibitory concentration (IC50) (Mus musculus, 72 h) is 560 nM.

With `COc1ccc(C2=NN(Cc3ccncc3)c3nnc(C)n3-c3sc(C)c(C)c32)cc1` [Example 150, 4-(4-Methoxyphenyl)-2,3,9-trimethyl-6-(pyridin-4-ylmethyl)-6H-5,6,7,8,9a-pentaazathien[2,3-e]azulene], the IC50 (Mus musculus, 72 h) turned out to be 29 nM.

As to `C=C(C)CN1N=C(c2ccc(Cl)cc2)c2ccccc2-n2c(C)nnc21` [Example 111, 6-(4-Chlorophenyl)-1-methyl-4-(2-methyl-2-propenyl)-4H-2,3,4,5,10b-pentaazabenz[e]azulene], for the setting “Mus musculus, 72 h”, the IC50 is 510 nM.

Turning to `Cc1cc2c(s1)-n1c(C)nnc1N(Cc1ccncc1)N=C2c1ccccc1` [Example 144, 2,9-Dimethyl-4-phenyl-6-(pyridin-4-ylmethyl)-6H-5,6,7,8,9a-pentaazathien[2,3-e]azulene], where the note is “Mus musculus, 72 h”, the IC50 was 270 nM.

In the case of `Cc1sc2c(c1C)C(c1ccc(Cl)cc1)=NN(Cc1ccncc1)c1nnc(C)n1-2` [Example 140, 4-(4-Chlorophenyl)-2,3,9-trimethyl-6-(pyridin-4-ylmethyl)-6H-5,6,7,8,9a-pentaazathien[2,3-e]azulene], the IC50 (Mus musculus, 72 h) stood at 50 nM. For the compound `Cc1nnc2n1-c1ccccc1C(c1ccc(Cl)cc1)=NN2Cc1ccccc1` [Example 94, 4-Benzyl-6-(4-chlorophenyl)-1-methyl-4H-2,3,4,5,10b-pentaazabenz[e]azulene], the IC50 (Mus musculus, 72 h) was 560 nM. Same read-out and setting: in the case of `Cc1cccc(CN2N=C(c3ccc(Cl)cc3)c3ccccc3-n3c(C)nnc32)c1` [Example 88, 6-(4-Chlorophenyl)-1-methyl-4-(3-methylbenzyl)-4H-2,3,4,5,10b-pentaazabenz[e]azulene] it was 590 nM. On the same count and under the same terms, the value for `COc1ccc(CN2N=C(c3ccc(Cl)cc3)c3ccccc3-n3c(C)nnc32)cc1` [Example 40, 6-(4-Chlorophenyl)-4-(4-methoxybenzyl)-1-methyl-4H-2,3,4,5,10b-pentaazabenz[e]azulene] was 120 nM; that for `CC(=O)Nc1ccc(CN2N=C(c3ccc(Cl)cc3)c3ccccc3-n3c(C)nnc32)cc1` [Example 189, 4-(4-Acetylaminobenzyl)-6-(4-chlorophenyl)-1-methyl-4H-2,3,4,5,10b-pentaazabenz[e]azulene] was 260 nM. On the same count and under the same terms, the value for `Cc1nnc2n1-c1ccccc1C(c1ccc(Cl)cc1)=NN2Cc1cccc([N+](=O)[O-])c1` [Example 68, 6-(4-Chlorophenyl)-1-methyl-4-(3-nitrobenzyl)-4H-2,3,4,5,10b-pentaazabenz[e]azulene] was 330 nM.
